From US20060154990A1, “Use of MEK inhibitors in treating abnormal cell growth” (AGOURON PHARMACEUTICALS, INC., priority 2004, published 2006)
Like-named read-outs stand apart in the source and are kept apart here.

How the values were obtained:
[1] = Metabolites of [14C] Compound 1 in liver microsomes; format: in vitro ADME, monkey; conditions: [C-14] Compound 1 10 μM, 90 mins
Protocol: (§1) Incubations were performed in hepatocytes for 3 hours and liver microsomes for 1.5 hours and were stopped with the addition of methanol. HPLC, in conjuction with ionspray 3D iontrap mass spectrometry, and simultaneous radioactive monitoring were used to detect and identify the resulting metabolites.
This acid cleavage product is further metabolized to form hydroxylated (M 11, 16% in rat) and hydroxylated, defluorinated products (M 17, 19% in rat).

[2] = tested on: ERK phosphorylation in colon 26 cells; assay: cells; conditions: Mus musculus
[3] = Metabolites of [14C] Compound 1 in cryopreserved hepatocytes; format: in vitro ADME, dog; conditions: [C-14] Compound 1 10 μM, 180 mins
Protocol: as §1
Metabolite identification of radiolabeled Compound 1 was performed after incubation with rat, dog, monkey and human cryopreserved hepatocytes and liver microsomes. […] Besides glucuronidation, metabolites derived from other clearance pathways are also observed. For instance, M 15 (acid cleavage product) accounts for 11% of the total radioactivity in the human chromatogram.

H23 NSCL xenograft = assay: Antitumor activity in H23 tumor model; format: in vivo, mice; conditions: oral 25 mg/kg once a day for 14 days
[4] = tested on: RXF-393 renal cell carcinoma; assay: Antitumor activity in RXF-393 tumor model; format: in vivo, mice; conditions: oral 25 mg/kg once a day, euthanized on day 8 of dosing
HT-29 colon xenograft = assay: Antitumor activity in HT-29 tumor model; format: in vivo, mice; conditions: oral 25 mg/kg once a day for 14 days

O=C(NOC[C@H](O)CO)c1ccc(F)c(F)c1Nc1ccc(I)cc1F [Compound 1, N-[(R)-2,3-dihydroxy-propoxy]-3,4-difluoro-2-(2-fluoro-4-iodo-phenylamino)-benzamide]
% ROI Monkey [1]: 71.38% | IC50 ([2]; Colon 26, 1 h, read-out: Cellular IC50): 340 pM | IC50 ([2]; Colon 26, read-out: IC50, phosphorylation of MAP kinase): 330 pM | % ROI Dog [3]: 50.45% | CR (complete responder) (H23 NSCL xenograft): 0/8 | PR (partial responder) (H23 NSCL xenograft): 1/8 | T − C (H23 NSCL xenograft): 13.9 days | Tumor Free (H23 NSCL xenograft): 0/8 | CR (complete responder) [4]: 0/10 | PR (partial responder) [4]: 0/10 | Tumor Free [4]: 0/10 | CR (complete responder) (HT-29 colon xenograft): 0/10 | PR (partial responder) (HT-29 colon xenograft): 0/10 | Tumor Free (HT-29 colon xenograft): 0/10 | doses at which Grade 3 rashes were seen (human, in vivo): above 15 mg BID | effect on serum (C×P) product (human, in vivo): no notable effect | MTD (patients, dosing 21 days of a 28-day cycle): 20 mg BID
